In patent publication US20090069370A1, “AZACYCLYLISOQUINOLINONE AND ISOINDOLINONE DERIVATIVES AS HISTAMINE-3 ANTAGONISTS” (Wyeth, priority 2007, published 2009):

Tests used:
[1] = molecular target: T1, Human Histamine H3 Receptor (Homo sapiens, UniProt Q9Y5N1); experiment: Methyl histamine binding in human histamine H3 receptor cell line; settings: membranes of stably transfected HEK293T cells; radioligand 1 nM; Ki from IC50 by Cheng-Prusoff
T1 construct: expressed in transfected cells; host or cells: HEK293T cells, stably transfected; membrane preparation
T1 sequence (Q9Y5N1 whole entry): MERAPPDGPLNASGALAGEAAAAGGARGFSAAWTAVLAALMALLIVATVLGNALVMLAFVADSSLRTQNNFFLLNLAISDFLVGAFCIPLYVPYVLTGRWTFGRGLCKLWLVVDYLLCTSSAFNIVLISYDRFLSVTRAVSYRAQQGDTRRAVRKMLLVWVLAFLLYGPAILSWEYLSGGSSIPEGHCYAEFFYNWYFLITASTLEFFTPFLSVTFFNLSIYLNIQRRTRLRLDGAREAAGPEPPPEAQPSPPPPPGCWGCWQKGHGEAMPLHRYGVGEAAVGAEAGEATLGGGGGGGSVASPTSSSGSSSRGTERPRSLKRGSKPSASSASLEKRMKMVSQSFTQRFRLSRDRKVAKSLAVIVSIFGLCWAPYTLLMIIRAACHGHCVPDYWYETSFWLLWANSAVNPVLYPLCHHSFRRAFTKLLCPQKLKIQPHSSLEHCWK
Method in brief: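 Radioligand (1 nM final) displacement on membranes (10 μg) from stably transfected HEK293T cells, 1 h at 30 °C in 50 mM Tris pH 7.5, compounds ~100 μM–100 pM, nonspecific with 10 uM clobenpropit, filtration and scintillation counting. IC50 from four-parameter fit; Ki via Cheng-Prusoff.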

SMILES | melting point [°C] | Ki [1] [nM]
O=C(O)c1ccc(COc2ccc3c(c2)CCN(C2CCN(C4CCC4)CC2)C3=O)cc1 [Example 14, 4-({[2-(1-cyclobutylpiperidin-4-yl)-1-oxo-1,2,3,4-tetrahydroiso-quinolin-6-yl]oxy}methyl)benzoic acid] | 269 to 270 | 10.1 to 25
CNC(=O)c1ccc(-c2ccc3c(c2)CCN([C@@H]2CCN(C4CCC4)C2)C3=O)cc1 [Example 44, 4-{2-[(3R)-1-cyclobutylpyrrolidin-3-yl]-1-oxo-1,2,3,4-tetrahydroisoquinolin-6-yl}-N-methylbenzamide] | – | ≤ 10
CC(C)N1CC[C@@H](N2CCc3cc(-c4ccc(C(=O)N5CCCC5)cc4)ccc3C2=O)C1 [Example 56, 2-[(3R)-1-(1-methylethyl)pyrrolidin-3-yl]-6-[4-(pyrrolidin-1-ylcarbonyl)phenyl]-3,4-dihydroisoquinolin-1(2H)-one] | – | ≤ 10
O=C(c1ccc(-c2ccc3c(c2)CCN([C@@H]2CCN(CC4CCCC4)C2)C3=O)cc1)N1CCCC1 [Example 59, 2-[(3R)-1-(cyclopentylmethyl)pyrrolidin-3-yl]-6-[4-(pyrrolidin-1-ylcarbonyl)phenyl]-3,4-dihydroisoquinolin-1(2H)-one] | – | 10.1 to 25
C[C@H]1CCCN1C(=O)c1ccc(-c2ccc3c(c2)CCN([C@@H]2CCN(C4CCC4)C2)C3=O)c(F)c1 [Example 73, 2-[(3R)-1-cyclobutylpyrrolidin-3-yl]-6-(2-fluoro-4-{[(2S)-2-methylpyrrolidin-1-yl]carbonyl}phenyl)-3,4-dihydroisoquinolin-1(2H)-one] | – | ≤ 10

Second part, the compound after the results:

melting point [°C] | Ki [1] [nM] | SMILES
170 to 173 | 50.1 to 100 | O=C(O)c1ccc(Oc2ccc3c(c2)CCN([C@@H]2CCN(C4CCCC4)C2)C3=O)cc1 [Example 36, (R)-4-(2-(1-cyclopentylpyrrolidin-3-yl)-1-oxo-1,2,3,4-tetrahydro-isoquinolin-6-yloxy)benzoic acid]
165 to 166 | 10.1 to 25 | COC(=O)c1ccc(COc2ccc3c(c2)CCN(C2CCN(C4CCC4)CC2)C3=O)cc1 [Example 13, methyl 4-({[2-(1-Cyclobutylpiperidin-4-yl)-1-oxo-1,2,3,4-tetrahydroisoquinolin-6-yl]oxy}methyl)benzoate]
255 to 256 | 50.1 to 100 | O=C(O)c1ccc(Oc2ccc3c(c2)CCN(C2CCN(C4CCC4)CC2)C3=O)cc1 [Example 2, 4-{[2-(1-cyclobutylpiperidin-4-yl)-1-oxo-1,2,3,4-tetrahydroiso-quinolin-6-yl]oxy}benzoic acid]
– | ≤ 10 | O=C(c1ccc(Oc2ccc3c(c2)CCN(C2CCN(C4CCC4)CC2)C3=O)cc1)N1CCCC1 [Example 12, 2-(1-Cyclobutylpiperidin-4-yl)-6-[4-(pyrrolidin-1-ylcarbonyl)phenoxy]-3,4-dihydroisoquinolin-1(2H)-one]
– | 10.1 to 25 | CC(C)NC(=O)c1ccc(Oc2ccc3c(c2)CCN(C2CCN(C4CCC4)CC2)C3=O)cc1 [Example 6, 4-{[2-(1-Cyclobutylpiperidin-4-yl)-1-oxo-1,2,3,4-tetrahydroisoquinolin-6-yl]oxy}-N-isopropylbenzamide]
